# Key:
# Format in all cases: functional
# [1] = Growth inhibition of human prostate cancer cells after 48 hrs; details: Cancer cell lines; for CC50: read-out: LC50 (the source's name)
# [2] = Growth inhibition of human breast cancer cells after 48 hrs; details: Cancer cell lines; for CC50: read-out: LC50 (the source's name)
# [3] = Growth inhibition of human renal cancer cells after 48 hrs; details: Cancer cell lines; for CC50: read-out: LC50 (the source's name)
# [4] = Growth inhibition of human Ovarian cancer cells after 48 hrs; details: Cancer cell lines; for CC50: read-out: LC50 (the source's name)
# NSCLC = assay: Growth inhibition of human NSCLC cells after 48 hrs
# [5] = Growth inhibition of human leukemia cells after 48 hrs; details: Leukemia cell; for CC50: read-out: LC50 (the source's name)
# [6] = Growth inhibition of human CNS cancer cells after 48 hrs; details: Cancer cell lines; for CC50: read-out: LC50 (the source's name)
# [7] = Growth inhibition of human colon cancer cells after 48 hrs; details: Cancer cell lines; for CC50: read-out: LC50 (the source's name)
# [8] = Growth inhibition of human melanoma cells after 48 hrs; details: Melanoma cell; for CC50: read-out: LC50 (the source's name)
smiles,measurement,setting,value
COc1cc2c(/C=C3/C(=O)Nc4ccc(N(C)C)cc43)c(Cl)n(C)c2cc1C,GI50,[1],20.4 µM
same,GI50,[2],6.92 µM
same,GI50,[3],11.2 µM
same,GI50,[4],10.5 µM
same,CC50,[4],91.2 µM
same,GI50,NSCLC,18.2 µM
same,GI50,[5],10 µM
same,CC50,[5],87.1 µM
same,GI50,[6],10.7 µM
same,GI50,[7],12.3 µM
same,GI50,[8],10.2 µM
same,CC50,[8],93.3 µM
COc1cc2c(cc1C)NC(=O)/C2=C/c1c(Cl)n(C)c2cc(C)c(OC)cc12,GI50,[1],22.4 µM
same,GI50,[2],18.6 µM
same,CC50,[2],95.5 µM
same,GI50,[3],41.7 µM
same,GI50,[4],30.2 µM
same,GI50,NSCLC,34.7 µM
same,GI50,[5],18.2 µM
same,CC50,[5],97.7 µM
same,GI50,[6],26.9 µM
same,GI50,[7],22.9 µM
same,GI50,[8],15.1 µM
same,CC50,[8],57.5 µM
COc1cc2c(/C=C3/C(=O)Nc4ccc(Br)cc43)c(Cl)n(C)c2cc1C,GI50,[1],1.55 µM
same,CC50,[1],26.3 µM
same,GI50,[2],0.95 µM
same,CC50,[2],31.6 µM
same,GI50,[3],1.7 µM
same,CC50,[3],26.9 µM
same,GI50,[4],3.47 µM
same,CC50,[4],43.6 µM
same,GI50,NSCLC,1.91 µM
same,LC50,NSCLC,37.1 µM
same,GI50,[5],2.51 µM
same,GI50,[6],0.93 µM
same,CC50,[6],38.9 µM
same,GI50,[7],1.55 µM
same,CC50,[7],29.5 µM
same,GI50,[8],1.55 µM
same,CC50,[8],31.6 µM
Cc1cc2c(cc1O)/C(=C\c1c(Cl)[nH]c3c1ccc1ccccc13)C(=O)N2,TGI,[1],26.3 µM
same,CC50,[1],74.1 µM
same,GI50,[2],3.72 µM
same,TGI,[2],19.1 µM
same,CC50,[2],69.2 µM
same,GI50,[3],8.71 µM
same,TGI,[3],33.1 µM
same,CC50,[3],75.9 µM
same,GI50,[4],9.12 µM
same,TGI,[4],46.8 µM
same,CC50,[4],87.1 µM
same,GI50,NSCLC,7.94 µM
same,TGI,NSCLC,30.2 µM
same,GI50,[5],3.31 µM
same,TGI,[5],38 µM
same,GI50,[6],8.71 µM
same,TGI,[6],24.6 µM
same,CC50,[6],67.6 µM
same,GI50,[7],6.61 µM
same,TGI,[7],20.9 µM
same,CC50,[7],61.7 µM
same,GI50,[8],6.46 µM
same,TGI,[8],20.9 µM
same,CC50,[8],57.5 µM
CN(C)c1ccc2[nH]c(Cl)c(/C=C3/C(=O)N(C)c4ccc(O)cc43)c2c1,GI50,[1],12.9 µM
same,GI50,[2],3.8 µM
same,TGI,[2],30.9 µM
same,GI50,[3],4.37 µM
same,TGI,[3],31.6 µM
same,CC50,[3],87.1 µM
same,GI50,[4],8.32 µM
same,TGI,[4],55 µM
same,CC50,[4],95.5 µM
same,GI50,NSCLC,6.61 µM
same,LC50,NSCLC,85.1 µM
same,TGI,NSCLC,46.8 µM
same,GI50,[5],16.6 µM
same,GI50,[6],6.03 µM
same,TGI,[6],33.9 µM
same,CC50,[6],85.1 µM
same,GI50,[7],4.9 µM
same,TGI,[7],20.9 µM
same,CC50,[7],61.7 µM
same,GI50,[8],4.57 µM
same,TGI,[8],26.3 µM
same,CC50,[8],66.1 µM
COc1cc2c(/C=C3/C(=O)Nc4cc(Cl)ccc43)c(Cl)[nH]c2cc1C,GI50,[1],0.22 µM
same,CC50,[1],41.7 µM
same,GI50,[2],0.15 µM
same,CC50,[2],39.8 µM
same,GI50,[3],0.23 µM
same,CC50,[3],46.8 µM
same,GI50,[4],0.28 µM
same,CC50,[4],49 µM
same,GI50,NSCLC,0.43 µM
same,LC50,NSCLC,52.5 µM
same,GI50,[5],0.14 µM
same,CC50,[5],58.9 µM
same,GI50,[6],0.12 µM
same,CC50,[6],41.7 µM
same,GI50,[7],0.17 µM
same,CC50,[7],25.7 µM
same,GI50,[8],0.23 µM
same,CC50,[8],35.5 µM
COc1cc2c(/C=C3/C(=O)Nc4ccc(Br)cc43)c(Cl)[nH]c2cc1C,GI50,[1],2.24 µM
same,CC50,[1],30.9 µM
same,GI50,[2],2.14 µM
same,CC50,[2],50.1 µM
same,GI50,[3],2.45 µM
same,CC50,[3],37.1 µM
same,GI50,[4],2 µM
same,CC50,[4],38.9 µM
same,GI50,NSCLC,3.02 µM
same,LC50,NSCLC,53.7 µM
same,GI50,[5],1.62 µM
same,CC50,[5],37.1 µM
same,GI50,[6],1.58 µM
same,CC50,[6],35.5 µM
same,GI50,[7],1.95 µM
same,CC50,[7],23.4 µM
same,GI50,[8],2.14 µM
same,CC50,[8],41.7 µM
CN(C)c1ccc2[nH]c(Cl)c(/C=C3/C(=O)Nc4ccc(O)cc43)c2c1,GI50,[1],8.91 µM
same,GI50,[2],2.88 µM
same,GI50,[3],5.13 µM
same,CC50,[3],91.2 µM
same,GI50,[4],7.24 µM
same,GI50,NSCLC,5.13 µM
same,LC50,NSCLC,95.5 µM
same,GI50,[5],2.24 µM
same,GI50,[6],3.8 µM
same,GI50,[7],3.89 µM
same,CC50,[7],69.2 µM
same,GI50,[8],5.25 µM
same,CC50,[8],79.4 µM
O=C1Nc2ccc(Cl)cc2/C1=C\c1c(Cl)[nH]c2c1ccc1ccccc12,GI50,[1],0.38 µM
COc1cc2c(cc1C)NC(=O)/C2=C/c1c(Cl)[nH]c2c1ccc1ccccc12,LC50,NSCLC,47.9 µM
same,GI50,[6],0.31 µM
